In general, LD50 refers to the dose at which mortality reaches 50%.

The text below walks through data of US5858992A, “Non-reducing saccharides, their preparation and use” (Kabushiki Kaisha Hayashibara Seibutsu Kagaku Kenkyujo, priority 1995, dated 1999).

Data set [1] addresses T1, Salivary amylase (Homo sapiens, UniProt P0DUB6).
T1 sequence (P0DUB6 16-511): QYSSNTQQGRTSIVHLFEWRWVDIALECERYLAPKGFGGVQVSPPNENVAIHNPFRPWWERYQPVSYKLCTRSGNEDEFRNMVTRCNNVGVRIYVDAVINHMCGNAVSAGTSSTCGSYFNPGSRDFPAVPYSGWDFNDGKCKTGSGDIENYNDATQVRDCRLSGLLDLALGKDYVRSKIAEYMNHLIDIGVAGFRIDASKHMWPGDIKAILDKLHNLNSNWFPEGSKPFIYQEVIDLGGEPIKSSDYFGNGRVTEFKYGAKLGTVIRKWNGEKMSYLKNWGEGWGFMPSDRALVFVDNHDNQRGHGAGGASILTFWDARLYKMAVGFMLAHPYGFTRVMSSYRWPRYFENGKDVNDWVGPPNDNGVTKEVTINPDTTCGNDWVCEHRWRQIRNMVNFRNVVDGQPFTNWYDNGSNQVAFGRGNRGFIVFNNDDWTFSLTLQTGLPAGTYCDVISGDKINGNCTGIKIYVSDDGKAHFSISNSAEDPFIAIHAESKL
The experiment in a line: in vitro.

Data set [2] can be described thus: in vitro. To be noted: gastric acid.
Data set [3] has as its target T2, Pancreatic juice amylase (Homo sapiens, UniProt P04746).
T2 sequence (P04746 16-511): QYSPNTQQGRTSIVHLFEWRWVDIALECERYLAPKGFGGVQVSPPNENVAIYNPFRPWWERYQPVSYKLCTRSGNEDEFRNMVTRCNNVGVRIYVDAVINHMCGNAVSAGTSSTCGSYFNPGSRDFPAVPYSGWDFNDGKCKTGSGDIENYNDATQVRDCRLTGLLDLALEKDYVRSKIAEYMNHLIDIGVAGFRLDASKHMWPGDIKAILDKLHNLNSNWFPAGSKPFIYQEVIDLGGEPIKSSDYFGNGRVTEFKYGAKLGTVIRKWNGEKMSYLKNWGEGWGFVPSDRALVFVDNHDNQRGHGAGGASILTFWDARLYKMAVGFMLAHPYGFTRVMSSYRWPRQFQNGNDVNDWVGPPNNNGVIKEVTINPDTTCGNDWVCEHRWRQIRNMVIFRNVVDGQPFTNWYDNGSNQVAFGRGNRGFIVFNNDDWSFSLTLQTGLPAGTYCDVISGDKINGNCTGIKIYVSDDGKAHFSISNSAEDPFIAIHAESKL
Briefly: in vitro.

Data set [4] can be described thus: Maillard reaction (coloration with glycine). The data set is classed as physicochemical. Particulars: 10 w/v % saccharide, one w/v % glycine, 50 mM phosphate buffer pH 7.0, 100° C. for 90 min, 1-cm light-path cell.
Data set [5] deals with Bifidobacterium longum JCM 1217. The experiment in a line: Assimilation test by intestinal microorganism. The data set is classed as cell-based. To be noted: 0.5 w/v % saccharide in PYF broth, 37° C., 96 hours; free of sugar: -.
For data set [6], the system named is Clostridium perfringens JCM 3816. The format is cell-based. Particulars: 0.5 w/v % saccharide in PYF broth, 37° C., 96 hours; free of sugar: -.
Data set [7] deals with Peptostreptococcus prevotii ATCC 9321. The experiment in a line: Assimilation test by intestinal microorganism. To be noted: 0.5 w/v % saccharide in PYF broth, 37° C., 96 hours; free of sugar: -. The data set is classed as cell-based.
Data set [8] in a line: Acute toxicity test. The format is in vivo. To be noted: oral, mice; for LD50: mouse, in vivo. The text has this:
As a result, no mouse died even when administered with a highest possible dose. This means that the LD50 is 50 g/kg mouse or more and concludes that it is extremely low in toxicity.

The test system of data set [9] is Streptococcus sobrinus ATCC 27351. Briefly: Acid formation by dental caries-inducing microorganisms. To be noted: for pH at each fermentation time (min): living wet cells, 0.02M saccharide, Stephen buffer pH 7.0, 37° C.
The subject of data set [10] is Bifidobacterium adolescentis JCM 1275. The experiment in a line: Assimilation test by intestinal microorganism. The format is cell-based. To be noted: 0.5 w/v % saccharide in PYF broth, 37° C., 96 hours; free of sugar: -.
Data set [11] has as its system Bifidobacterium animalis JCM 1190. Briefly: Assimilation test by intestinal microorganism. The data set is classed as cell-based. Particulars: 0.5 w/v % saccharide in PYF broth, 37° C., 96 hours; free of sugar: -.
Data set [12] deals with Bifidobacterium bifidum JCM 1255. Briefly: Assimilation test by intestinal microorganism. The data set is classed as cell-based. To be noted: 0.5 w/v % saccharide in PYF broth, 37° C., 96 hours; free of sugar: -.
Data set [13] has as its system Bifidobacterium breve JCM 1192. Briefly: Assimilation test by intestinal microorganism. The data set is classed as cell-based. To be noted: 0.5 w/v % saccharide in PYF broth, 37° C., 96 hours; free of sugar: -.
Data set [14] has as its system Bifidobacterium infantis JCM 1222. The experiment in a line: Assimilation test by intestinal microorganism. The format is cell-based. To be noted: 0.5 w/v % saccharide in PYF broth, 37° C., 96 hours; free of sugar: -.
Data set [15] deals with Lactobacillus fermentum IFO 3959. Briefly: Assimilation test by intestinal microorganism. The data set is classed as cell-based. To be noted: 0.5 w/v % saccharide in PYF broth, 37° C., 96 hours; free of sugar: -.
Data set [16] deals with Lactobacillus plantarum IFO 3070. The experiment in a line: Assimilation test by intestinal microorganism. To be noted: 0.5 w/v % saccharide in PYF broth, 37° C., 96 hours; free of sugar: -. The format is cell-based.
The subject of data set [17] is Eubacterium aerofaciens ATCC 25986. Briefly: Assimilation test by intestinal microorganism. The data set is classed as cell-based. To be noted: 0.5 w/v % saccharide in PYF broth, 37° C., 96 hours; free of sugar: -.
The test system of data set [18] is Bacteroides distasonis JCM 5825. Briefly: Assimilation test by intestinal microorganism. The format is cell-based. To be noted: 0.5 w/v % saccharide in PYF broth, 37° C., 96 hours; free of sugar: -.
The test system of data set [19] is Bacteroides vulgatus JCM 5826. Briefly: Assimilation test by intestinal microorganism. To be noted: 0.5 w/v % saccharide in PYF broth, 37° C., 96 hours; free of sugar: -. The format is cell-based.
In data set [20] the test system is Bacteroides uniformis JCM 5828. The experiment in a line: Assimilation test by intestinal microorganism. The format is cell-based. Particulars: 0.5 w/v % saccharide in PYF broth, 37° C., 96 hours; free of sugar: -.
Data set [21] deals with Clostridium butyricum JCM 1391. The format is cell-based. Particulars: 0.5 w/v % saccharide in PYF broth, 37° C., 96 hours; free of sugar: -.
Data set [22] relates to Clostridium ramosum JCM 1298. Briefly: Assimilation test by intestinal microorganism. Particulars: 0.5 w/v % saccharide in PYF broth, 37° C., 96 hours; free of sugar: -. The format is cell-based.
Data set [23] deals with Streptococcus faecalis IAM 10065. The experiment in a line: Assimilation test by intestinal microorganism. The data set is classed as cell-based. Particulars: 0.5 w/v % saccharide in PYF broth, 37° C., 96 hours; free of sugar: -.
The subject of data set [24] is Escherichia coli IFO 3301. Briefly: Assimilation test by intestinal microorganism. The data set is classed as cell-based. To be noted: 0.5 w/v % saccharide in PYF broth, 37° C., 96 hours; free of sugar: -.
Data set [25] in a line: Solubility in solvent.

Turning to `OC[C@H]1O[C@H](O[C@H]2[C@H](O)[C@@H](O)C(O)O[C@@H]2CO)[C@H](O)[C@@H](O)[C@@H]1O` (mixture of isomers) [Maltose, reference compound], the metabolised came to 0% in data set [1] and 0.2% in [3]. For the same compound, the degraded in [2] was determined as 0%.

For `OC[C@H]1O[C@H](OC[C@H]2O[C@H](OC[C@H]3O[C@H](OC[C@H]4OC(O)[C@H](O)[C@@H](O)[C@@H]4O)[C@H](O)[C@@H](O)[C@@H]3O)[C@H](O)[C@@H](O)[C@@H]2O)[C@H](O)[C@@H](O)[C@@H]1O` (stereo partly drawn) [Isomaltotetraose, isomaltotetraose, reference compound], the “Coloration degree (at a wavelength of 480 nm)” value in [4] was found to be 0.495.

With `OC[C@H]1O[C@H](OC[C@H]2O[C@H](OC[C@H]3OC(O)[C@H](O)[C@@H](O)[C@@H]3O)[C@H](O)[C@@H](O)[C@@H]2O)[C@H](O)[C@@H](O)[C@@H]1O` (stereo partly drawn) [Isomaltotriose, isomaltotriose, reference compound], the “Coloration degree (at a wavelength of 480 nm)” value in data set [4] was 0.642.

On to `OC[C@H]1O[C@H](OC[C@H]2O[C@H](O[C@H]3O[C@H](CO)[C@@H](O)[C@H](O)[C@H]3O)[C@H](O)[C@@H](O)[C@@H]2O)[C@H](O)[C@@H](O)[C@@H]1O` [O-α-D-glucopyranosyl -(1→6)-α-D-glucopyranosyl α-D-glucopyranoside], for which the entries for the “Judgement of assimilation (turbidity at 750 nm, ×5)” value (shortened to “Judgement of assimilation”) in data set [5], in data set [6] and in data set [7] were “+++ (0.3 or higher)”, “+ (0.15 or higher but less than 0.2)” and “± (0.1 or higher but less than 0.15)”, respectively. Besides, in data set [8], the LD50 was ≥ 50000 mg/kg. In addition, the “Mortality at a highest possible dose” value in data set [8] was “no mouse died”. The compound further yielded a metabolised in [3] of 0.5%.

For the compound `OC[C@H]1O[C@@](CO)(O[C@H]2O[C@H](CO)[C@@H](O)[C@H](O)[C@H]2O)[C@@H](O)[C@@H]1O` [Sucrose, reference compound], the “pH reduction / acid fermentation, in words” value in data set [9] is given as “rapid”. Also, the “pH at each fermentation time (min)” value came out at 7.0 in data set [9] (0 min); 4.3 in [9] (5 min); 4.1 in data set [9] (15 min); 4.0 in data set [9] (30 min); 4.0 in data set [9] (60 min); 4.0 in data set [9] (90 min).

For `O=C[C@H](O)[C@@H](O)[C@H](O)[C@H](O)CO` [glucose, reference compound], the “Judgement of assimilation” value in data set [10] is recorded as “+++ (0.3 or higher)”; in [11], “+++ (0.3 or higher)”; in [12], “++ (0.2 or higher but less than 0.3)”; in data set [13], “++ (0.2 or higher but less than 0.3)”; in [14], “++ (0.2 or higher but less than 0.3)”; in data set [5] it was “+++ (0.3 or higher)”. The “Judgement of assimilation” value in [15] was “++ (0.2 or higher but less than 0.3)”; in [16], “++ (0.2 or higher but less than 0.3)”; in [17], “+++ (0.3 or higher)”; in [18], “++ (0.2 or higher but less than 0.3)”; in data set [19], “+ (0.15 or higher but less than 0.2)”; in data set [20], “++ (0.2 or higher but less than 0.3)”. Also, the “Judgement of assimilation” value in data set [21] is listed as “+++ (0.3 or higher)”; in [6], “+++ (0.3 or higher)”; in data set [22], “+ (0.15 or higher but less than 0.2)”; in data set [23], “++ (0.2 or higher but less than 0.3)”; in [7], “+ (0.15 or higher but less than 0.2)”; in data set [24], “+ (0.15 or higher but less than 0.2)”.

For the compound `OC[C@H]1O[C@H](OC[C@H]2O[C@H](O[C@H]3O[C@H](CO[C@H]4O[C@H](CO)[C@@H](O)[C@H](O)[C@H]4O)[C@@H](O)[C@H](O)[C@H]3O)[C@H](O)[C@@H](O)[C@@H]2O)[C@H](O)[C@@H](O)[C@@H]1O` [α-Isomaltosyl α-isomaltoside, O-α-D-glucopyranosyl -(1→6)-α-D-glucopyranosyl-O-α-D-glucopyranosyl-(1→6) -α-D-glucopyranoside], the “Judgement of assimilation” value in [5] is “+++ (0.3 or higher)”; in data set [21], “+++ (0.3 or higher)”; in data set [6], “- (Less than 0.1)”; in data set [7], “± (0.1 or higher but less than 0.15)”. Also, the median lethal dose (LD50) in [8] was ≥ 50000 mg/kg. The compound further returned a metabolised in data set [3] of 0.3%. The Solubility in solvent entry is on record as “Insoluble” in data set [25] (chloroform and ethyl acetate); “Hardly soluble” in data set [25] (methanol and ethanol).

For the compound `OC[C@H]1O[C@H](OC[C@H]2O[C@H](OC[C@H]3O[C@H](O[C@H]4O[C@H](CO)[C@@H](O)[C@H](O)[C@H]4O)[C@H](O)[C@@H](O)[C@@H]3O)[C@H](O)[C@@H](O)[C@@H]2O)[C@H](O)[C@@H](O)[C@@H]1O` [α-Isomaltotriosyl α-glucoside, O-α-D-glucopyranosyl-(1→6)-O-α-D-glucopyranosyl-(1→6) α-D-glucopyranosyl α-D-glucopyranoside], the “Judgement of assimilation” value in data set [21] is on record as “+++ (0.3 or higher)”; in [7], “± (0.1 or higher but less than 0.15)”. For the same compound, in [8], the LD50 was ≥ 50000 mg/kg. In addition, the metabolised in data set [3] stood at 0.5%.
